{"source": "patent US20020051795A1", "about": "“ASCORBIC ACID AS AN ADJUVANT IN THE REMOVAL OF VASCULAR OCCLUSIONS” (priority 1997, published 2002)", "test_system": "patients at risk for a vascular occlusion", "test": "ascorbic acid infusion as adjuvant to thrombolytic treatment (streptokinase or heparin) in patients, compared with patients receiving no ascorbic acid", "format": "in vivo, humans", "settings": "20 patients; infusion of 70 ml of a 15% ascorbic acid solution diluted with physiological saline, pH 6.0 to 7.0, over four hours, with streptokinase (1.0×106 units) or heparin 2.5 mg/kg; versus equal number of patients with no ascorbic acid infusion but otherwise the same therapy", "description": "Treatment of a patient threatened by a vascular occlusion is administered, for example, by first giving the patient streptokinase (1.0×106 units) or heparin in a dose of 2.5 mg/kg […] in the form of an infusion over a period of 30 minutes. At the same time, the patient receives over a period of four hours an infusion of 70 ml of a 15% ascorbic acid solution diluted with physiological saline solution and adjusted to a pH of 6.0 to 7.0. The patient's condition is monitored continuously by an electrocardiogram. A group of 20 patients at risk for a vascular occlusion were treated by the procedure described above and compared with an equal number of patients receiving no ascorbic acid infusion during the operation but otherwise the same therapy."}
{"smiles": "O=C1O[C@H]([C@@H](O)CO)C(O)=C1O", "note": "[ascorbic acid]", "values": [{"measurement": "complications during the operation and during the subsequent two-week observation phase", "value": "significantly fewer complications"}]}
